≈ marks a conversion by molar mass, not a printed value. Read-outs that look alike come from different tables or passages of the source.
Assays:
Experiment in all cases: microbe, parasite or virus in culture
[1] = test system: T1, S. cerevisiae wild-type CVX12-3A; design: species or system whole yeast cells; micro-culture broth dilution MIC in YES at 30 C, turbidity, complete growth inhibition; conditions: Saccharomyces cerevisiae
T1 construct: CVX12-3A
Method: (§1) Standard YEPD (Yeast Extract, Peptone, Dextrose) ([Sherman, 1990]), YEPD+S (YEPD with 1.2M sorbitol), YES (Yeast Extract, Dextrose and Supplements of Adenine, Histidine, Leucine, Uracil and Lysine) ([Alfa et al., 1993]) and YES+S (YES with 1.2 M sorbitol) ([Ribas et al., 1991]; [Ishiguro et al., 1997]), media were used for determination of MIC values of the tested compounds. A stock solution of 10 mg/ml of each tested compounds was prepared in DMSO and serial dilutions in DMSO were prepared. The final concentration of DMSO was 2% in the YEPD medium. […] The serial dilutions of compounds were dispensed into test tubes with 1 ml of YEPD or YEPD+S to make final concentrations of 200, 100, 50, 25, 12.5, 6.26, 3.125, 1.6, 0.8 and 0.4 μg/ml. The tested yeast strains were previously grown in YEPD, YEPD+S, YES or YES+S agar plates at 30°C for 48 h. Micro-culture assays of large numbers of samples were analyzed as described) ([Martins et al., 2011]). Essentially early log-phase cells were grown in YEPD, YEPD+S, YES or YES+S (1.2 M sorbitol) medium at 30°C, and diluted to cell density of 4 X 10^6 cells/ml in YEPD, YEPD+S, YES or YES+S medium and aliquots of 100 μl were dispensed into each small test tube (3 ml test tube size). Then, another 100 μl of YEPD, YEPD+S, YES or YES+S with the corresponding dilution of each compound at 2X concentration (4% DMSO) was added. The final volume was 200 μl, with the cells diluted to of 2 X 10^6 cells/ml and each compound diluted to 1X final concentration, containing increasing concentrations of antifungal (0, 1, 2, 5, 10, 20, 50, 100 and 200 μg/ml) or an equivalent volume of solvent (2% DMSO). The cells were grown at 30°C in an orbital roller and turbidity was analyzed after 24 and 48 h of incubation. The MIC was determined as the minimal concentration of tested compound that produced complete cell growth inhibition and kept the medium clear. The MIC values were calculated from at least three independent experiments. Next, the first generation of isochromanones (1E-16E) was also screened in YES medium (Table 5) and exerted a weaker antifungal potency than in YEPD medium and also than the second family of isochromanones in YES medium (17E-30E) (Table 6). The strains are partly different from the previously mentioned ones (Tables 5, 6) analyzing two wild type C. albicans strains because they behaved similarly in YEPD. It is remarkable that there was no effect against either the C. albicans, the S. cerevisiae, or the S. pombe wild-type strains, except with 30E.

[2] = test system: T2, S. pombe wild-type 972 h-; design: species or system whole yeast cells; micro-culture broth dilution MIC in YES at 30 C, turbidity, complete growth inhibition; conditions: Schizosaccharomyces pombe
T2 construct: 972 h-
Method: as §1

[3] = test system: Candida albicans C. a.^f (Tables 5, 6); design: species or system yeast; micro tube dilution MIC in YES (± 1.2 M sorbitol), complete growth inhibition by turbidity; conditions: 48 h
Method: as §1, with “experiments.” for “experiments. Next, the first generation of isochromanones (1E-16E) was also screened in YES medium (Table 5) and exerted a weaker antifungal potency than in YEPD medium and also than the second family of isochromanones in YES medium (17E-30E) (Table 6). The strains are partly different from the previously mentioned ones (Tables 5, 6) analyzing two wild type C. albicans strains because they behaved similarly in YEPD. It is remarkable that there was no effect against either the C. albicans, the S. cerevisiae, or the S. pombe wild-type strains, except with 30E.”

[4] = test system: T3, Saccharomyces cerevisiae S. c.^d (wild-type CVX12-3A); design: species or system yeast; micro tube dilution MIC in YES (± 1.2 M sorbitol), complete growth inhibition by turbidity; conditions: 48 h
T3 construct: CVX12-3A
Method: as §1, with “experiments.” for “experiments. Next, the first generation of isochromanones (1E-16E) was also screened in YES medium (Table 5) and exerted a weaker antifungal potency than in YEPD medium and also than the second family of isochromanones in YES medium (17E-30E) (Table 6). The strains are partly different from the previously mentioned ones (Tables 5, 6) analyzing two wild type C. albicans strains because they behaved similarly in YEPD. It is remarkable that there was no effect against either the C. albicans, the S. cerevisiae, or the S. pombe wild-type strains, except with 30E.”

[5] = test system: T4, Schizosaccharomyces pombe S. p.^a (wild-type 972 h-); design: species or system yeast; micro tube dilution MIC in YES (± 1.2 M sorbitol), complete growth inhibition by turbidity; conditions: 48 h
T4 construct: 972 h-
Method: as §1, with “experiments.” for “experiments. Next, the first generation of isochromanones (1E-16E) was also screened in YES medium (Table 5) and exerted a weaker antifungal potency than in YEPD medium and also than the second family of isochromanones in YES medium (17E-30E) (Table 6). The strains are partly different from the previously mentioned ones (Tables 5, 6) analyzing two wild type C. albicans strains because they behaved similarly in YEPD. It is remarkable that there was no effect against either the C. albicans, the S. cerevisiae, or the S. pombe wild-type strains, except with 30E.”

SMILES	MIC ([1]; read-out: MIC) [µg/mL]	MIC ([2]; read-out: MIC) [µg/mL]	MIC ([3]; read-out: MIC) [µg/mL]	MIC ([4]; read-out: MIC) [µg/mL]	MIC ([5]; read-out: MIC) [µg/mL]	MIC ([1]; YES medium) [µg/mL]	MIC ([2]; YES medium) [µg/mL]	MIC ([3]; YES + 1.2 M sorbitol) [µg/mL]	MIC ([4]; YES + 1.2 M sorbitol) [µg/mL]	MIC ([5]; YES + 1.2 M sorbitol) [µg/mL]
CC[C@H](C)C[C@H](C)CCCCCCCCC(=O)N[C@H]1C[C@@H](O)[C@@H](NCCN)NC(=O)[C@@H]2[C@@H](O)CCN2C(=O)[C@H]([C@H](O)CCN)NC(=O)[C@H]([C@H](O)[C@@H](O)c2ccc(O)cc2)NC(=O)[C@@H]2C[C@@H](O)CN2C(=O)[C@H]([C@@H](C)O)NC1=O [caspofungin]	0.5 (≈ 0.457 µM)	10 (≈ 9.15 µM)	50 (≈ 45.7 µM)	0.5 (≈ 0.457 µM)	10 (≈ 9.15 µM)					
O=c1oc2ccc3ccccc3c2cc1-c1ccccc1CO [compound 12]						> 200	> 200	> 200	> 200	> 200
O=c1oc2ccccc2cc1-c1ccccc1CO [compound 15]						> 200	> 200	> 200	> 200	> 200

Reference: PMC6689975, “Novel Cell Wall Antifungals Reveal a Special Synergistic Activity in pbr1 Mutants Resistant to the Glucan Synthesis Antifungals Papulacandins and Echinocandins” (Frontiers in Microbiology, 2019)
